Drawing on US20260325533A1, “CDK INHIBITOR COMPOUNDS” (ALEKSIA THERAPEUTICS, INC., priority 2023, published 2026), this text covers IC50 for 15 molecules.

Read-outs that look alike come from different tables or passages of the source.

What all share (format): biochemical
The target in one experiment is CDK1/CCNB1 (Homo sapiens, UniProt P06493). The experiment in a line: CDK1 homogeneous time-resolved fluorescence (HTRF) kinase assay. The conditions noted are these: CDK1/CCNB. The method in brief: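 Kinase activity is measured as Lance signal (665 nm, or 665/615 nm ratio) from europium-labelled anti-phospho-Thr37/46 antibody binding ULight-4E-BP1 peptide. Reactions contain 0.5 nM enzyme, 1 mM ATP, 1% DMSO and run 60 min at 23 °C before EDTA quench.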
Sequence of CDK1/CCNB1 (P06493 whole entry): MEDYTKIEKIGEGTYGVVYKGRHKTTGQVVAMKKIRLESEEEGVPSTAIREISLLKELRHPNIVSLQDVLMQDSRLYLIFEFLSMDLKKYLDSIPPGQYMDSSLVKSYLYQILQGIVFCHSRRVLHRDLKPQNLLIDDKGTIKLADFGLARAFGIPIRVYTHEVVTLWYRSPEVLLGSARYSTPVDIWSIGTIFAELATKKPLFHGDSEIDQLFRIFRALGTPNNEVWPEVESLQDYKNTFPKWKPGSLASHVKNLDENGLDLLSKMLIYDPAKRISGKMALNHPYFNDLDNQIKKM
Sequence of CDK1/CCNB1 (P14635 whole entry partner): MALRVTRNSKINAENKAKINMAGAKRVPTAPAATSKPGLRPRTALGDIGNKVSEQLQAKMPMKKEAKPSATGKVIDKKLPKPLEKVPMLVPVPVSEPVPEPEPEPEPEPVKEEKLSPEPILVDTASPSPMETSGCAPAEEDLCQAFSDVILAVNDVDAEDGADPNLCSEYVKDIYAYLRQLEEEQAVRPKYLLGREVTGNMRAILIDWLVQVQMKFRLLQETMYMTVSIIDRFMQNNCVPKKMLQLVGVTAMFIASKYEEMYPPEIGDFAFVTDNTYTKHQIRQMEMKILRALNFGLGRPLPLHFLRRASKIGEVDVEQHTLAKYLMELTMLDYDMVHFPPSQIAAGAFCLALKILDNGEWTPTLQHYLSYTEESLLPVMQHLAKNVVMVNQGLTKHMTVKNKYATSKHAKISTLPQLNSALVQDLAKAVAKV
Background: Time-resolved FRET reads energy transfer from a long-lived donor to a nearby acceptor.

In a further experiment the target is CDK4/CCND3 (Homo sapiens, UniProt P11802). The experiment in a line: CDK4 homogeneous time-resolved fluorescence (HTRF) kinase assay. Conditions: CDK4/CCND. The method in brief: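 CDK4/CCND3 at 1.5 nM was preincubated with compound for 20 min at 23 °C, then reacted for 60 min with 1 mM ATP and 50 nM ULight-4E-BP1 (Thr37/46) peptide. The reaction was stopped with EDTA, and phosphorylation was read by HTRF with a Eu-anti-phospho antibody. IC50 values came from 11-point half-log titrations, typically from 10 μM.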
Sequence of CDK4/CCND3 (P11802 whole entry): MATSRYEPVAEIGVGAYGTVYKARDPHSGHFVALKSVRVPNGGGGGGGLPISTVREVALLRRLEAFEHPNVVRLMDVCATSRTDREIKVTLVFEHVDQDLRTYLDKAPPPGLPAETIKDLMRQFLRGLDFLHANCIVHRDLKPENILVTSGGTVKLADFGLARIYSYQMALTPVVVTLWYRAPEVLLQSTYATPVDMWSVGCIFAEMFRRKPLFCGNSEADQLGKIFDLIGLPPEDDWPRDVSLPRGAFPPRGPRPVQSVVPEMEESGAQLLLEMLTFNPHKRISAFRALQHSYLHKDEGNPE
Sequence of CDK4/CCND3 (P30281 whole entry partner): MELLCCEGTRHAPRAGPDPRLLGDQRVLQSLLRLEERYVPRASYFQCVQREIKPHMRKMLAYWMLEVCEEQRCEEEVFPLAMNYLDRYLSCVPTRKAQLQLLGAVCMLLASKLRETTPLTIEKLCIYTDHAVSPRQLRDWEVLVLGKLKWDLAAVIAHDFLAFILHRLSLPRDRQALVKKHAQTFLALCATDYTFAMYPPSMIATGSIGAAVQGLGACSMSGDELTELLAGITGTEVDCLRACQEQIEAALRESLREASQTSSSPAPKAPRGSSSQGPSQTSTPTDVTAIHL

The target of another experiment is CDK2/CCNE1 (Homo sapiens, UniProt P24941). The experiment in a line: CDK2 homogeneous time-resolved fluorescence (HTRF) kinase assay. Conditions: CDK2/CCNE. The gist of the method:
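Compounds were titrated 11-point, half-log from typically 10 μM against 3 nM CDK2/cyclin E1 at 1 mM ATP, with a 20 min enzyme preincubation. Phosphorylation of 50 nM ULight-4E-BP1 peptide over 60 min at 23 °C was detected by europium anti-phospho antibody TR-FRET.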

The target in another experiment is CDK6/CCND1 (Homo sapiens, UniProt Q00534). In words: CDK6 homogeneous time-resolved fluorescence (HTRF) kinase assay. Conditions: CDK6/CCND. The gist of the method: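 Enzyme pre-incubated 20 min at 23 °C with compound, then reacted 60 min at 23 °C with 1 mM ATP and 50 nM ULight-4E-BP1 (Thr37/46) peptide; 1 nM enzyme, 1% DMSO. EDTA-stopped, Eu-anti-phospho antibody TR-FRET read (665 nm or 665/615 ratio); 11-point half-log titration from 10 μM gave IC50.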
Sequence of CDK6/CCND1 (Q00534 whole entry): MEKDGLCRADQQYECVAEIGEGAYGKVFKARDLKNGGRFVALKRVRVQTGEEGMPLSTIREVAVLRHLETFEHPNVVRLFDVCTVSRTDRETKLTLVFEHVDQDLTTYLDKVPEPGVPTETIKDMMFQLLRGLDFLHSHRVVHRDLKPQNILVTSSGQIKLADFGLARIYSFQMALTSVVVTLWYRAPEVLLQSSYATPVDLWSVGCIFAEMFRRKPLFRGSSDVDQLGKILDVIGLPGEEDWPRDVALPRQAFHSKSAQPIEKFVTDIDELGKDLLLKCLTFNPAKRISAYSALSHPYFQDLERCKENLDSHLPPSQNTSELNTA
Sequence of CDK6/CCND1 (P24385 whole entry partner): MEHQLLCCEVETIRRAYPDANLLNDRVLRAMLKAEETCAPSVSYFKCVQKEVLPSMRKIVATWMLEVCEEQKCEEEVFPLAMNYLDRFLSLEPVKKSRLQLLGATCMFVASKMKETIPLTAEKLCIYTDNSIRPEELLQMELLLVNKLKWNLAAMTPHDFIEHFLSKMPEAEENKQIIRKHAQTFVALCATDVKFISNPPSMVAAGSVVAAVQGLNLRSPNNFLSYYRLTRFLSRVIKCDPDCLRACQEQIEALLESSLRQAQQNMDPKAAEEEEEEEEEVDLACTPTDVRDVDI

Where [1] appears, read: >250 nM, read-out: CDK1/CCNB IC50 >250 nM.
[2] abbreviates: >250 nM, 1 mM ATP, read-out: CDK6/CCND IC50, >250 nM.
Where [3] appears, read: 25-250 nM, read-out: CDK4/CCND IC50, 25-250 nM.
The mark [4] stands for this setting: <25 nM, read-out: CDK2/CCNE IC50, <25 nM.
The mark [5] stands for this setting: 25-250 nM, read-out: CDK1/CCNB IC50, 25-250 nM.
Where [6] appears, read: 25-250 nM, 1 mM ATP, read-out: CDK6/CCND IC50, 25-250 nM.
[7] abbreviates: x = IC50 25-250 nM, read-out: CDK1/CCNB IC50 (25-250 nM).
Setting [8] is: x = IC50 25-250 nM, read-out: CDK4/CCND IC50 (25-250 nM).
The mark [9] stands for this setting: x = IC50 <25 nM, read-out: CDK2/CCNE IC50 (<25 nM).
Setting [10] is: x = IC50 25-250 nM, read-out: CDK6/CCND IC50 (25-250 nM).
Setting [11] is: x = IC50 >250 nM, read-out: CDK4/CCND IC50 (>250 nM column).
[12] abbreviates: x = IC50 >250 nM, read-out: CDK6/CCND IC50 (>250 nM column).
The mark [13] stands for this setting: x = IC50 >250 nM, read-out: CDK1/CCNB IC50 (>250 nM column).
Where [14] appears, read: 25-250 nM marked x, read-out: CDK1/CCNB IC50 25-250 nM.
Setting [15] is: <25 nM, read-out: CDK2/CCNE IC50 <25 nM.
Setting [16] is: >250 nM marked x, read-out: CDK6/CCND IC50 >250 nM.
Setting [17] is: >250 nM marked x, read-out: CDK1/CCNB IC50 >250 nM.
[18] abbreviates: >250 nM marked x, read-out: CDK4/CCND IC50 >250 nM.

Turning to `Cc1c(-c2nccc3cnc(NC4CCCN(S(C)(=O)=O)C4)cc23)ccc2c1cnn2CC(C)(C)O` (racemic) [Ex 918, 2-methyl-1-(4-methyl-5-(7-((1-(methylsulfonyl)piperidin-3-yl)amino)-2,6-naphthyridin-1-yl)-1H-indazol-1-yl)propan-2-ol], the IC50 on CDK1/CCNB1 (setting [1]) was over 250 nM; on CDK4/CCND3 (>250 nM, read-out: CDK4/CCND IC50, >250 nM), over 250 nM; on CDK2/CCNE1 (25-250 nM, read-out: CDK2/CCNE IC50, 25-250 nM), 25 to 250 nM; on CDK6/CCND1 (setting [2]) it was over 250 nM.

Take `CS(=O)(=O)c1ccc(Nc2cc3c(C#CC45CCC(Cl)(CC4)CC5)nccc3cn2)cc1` (racemic) [Ex 944, 5-((4-chlorobicyclo[2.2.2]octan-1-yl)ethynyl)-N-(4-(methylsulfonyl)phenyl)-2,6-naphthyridin-3-amine]: the IC50 at CDK1/CCNB1 (setting [1]) is over 250 nM; on CDK4/CCND3 (setting [3]), 25 to 250 nM; on CDK2/CCNE1 (setting [4]), under 25 nM; on CDK6/CCND1 (setting [2]), over 250 nM.

With `CS(=O)(=O)c1ccc(Nc2cc3c(C#CC45CC(C(N)=O)(C4)C5)nccc3cn2)cc1` (racemic) [Ex 945, 3-((7-((4-(methylsulfonyl)phenyl)amino)-2,6-naphthyridin-1-yl)ethynyl)bicyclo[1.1.1]pentane-1-carboxamide], the IC50 is 25 to 250 nM on CDK1/CCNB1 (setting [5]), 25 to 250 nM on CDK4/CCND3 (setting [3]), under 25 nM at CDK2/CCNE1 (setting [4]) and 25 to 250 nM at CDK6/CCND1 (setting [6]).

In the case of `CS(=O)(=O)c1ccc(Nc2cc3c(C#CC45CCC(C#N)(CC4)CC5)nccc3cn2)cc1` (racemic) [Ex 946, 4-((7-((4-(methylsulfonyl)phenyl)amino)-2,6-naphthyridin-1-yl)ethynyl)bicyclo[2.2.2]octane-1-carbonitrile], the IC50 at CDK1/CCNB1 (setting [5]) is 25 to 250 nM; at CDK4/CCND3 (setting [3]), 25 to 250 nM; at CDK2/CCNE1 (setting [4]) it was under 25 nM; at CDK6/CCND1 (setting [6]), 25 to 250 nM.

As for `CC1(O)C(=O)Nc2cc(C#Cc3nccc4cnc(Nc5ccc(S(C)(=O)=O)cc5)cc34)ccc21` (racemic) [Example 362, 3-hydroxy-3-methyl-6-((7-((4-(methylsulfonyl)phenyl)amino)-2,6-naphthyridin-1-yl)ethynyl)indolin-2-one], the IC50 on CDK1/CCNB1 (setting [7]) was 25 to 250 nM; on CDK4/CCND3 (setting [8]) it was 25 to 250 nM; on CDK2/CCNE1 (setting [9]), under 25 nM; on CDK6/CCND1 (setting [10]), 25 to 250 nM.

With `CCC1(C)C(=O)Nc2cc(C#Cc3nccc4cnc(Nc5ccc(S(C)(=O)=O)cc5)cc34)ccc21` (racemic) [Example 390, 3-ethyl-3-methyl-6-((7-((4-(methylsulfonyl)phenyl)amino)-2,6-naphthyridin-1-yl)ethynyl)indolin-2-one], the IC50 on CDK1/CCNB1 (setting [7]) is 25 to 250 nM; on CDK4/CCND3 (setting [11]), over 250 nM; on CDK2/CCNE1 (setting [9]), under 25 nM; on CDK6/CCND1 (setting [12]) it was over 250 nM.

Consider `CC1(CO)C(=O)Nc2cc(C#Cc3nccc4cnc(Nc5ccc(S(C)(=O)=O)cc5)cc34)ccc21` (racemic) [Example 391, 3-(hydroxymethyl)-3-methyl-6-((7-((4-(methylsulfonyl)phenyl)amino)-2,6-naphthyridin-1-yl)ethynyl)indolin-2-one], for which the IC50 is 25 to 250 nM at CDK1/CCNB1 (setting [7]), 25 to 250 nM on CDK4/CCND3 (setting [8]), under 25 nM on CDK2/CCNE1 (setting [9]) and over 250 nM on CDK6/CCND1 (setting [12]).

Consider `CC(C)S(=N)(=O)c1ccc(Nc2cc3c(C#Cc4ccc(=O)[nH]n4)nccc3cn2)cc1` (racemic) [Example 431, 6-((7-((4-(propan-2-ylsulfonimidoyl)phenyl)amino)-2,6-naphthyridin-1-yl)ethynyl)pyridazin-3(2H)-one], for which the IC50 on CDK1/CCNB1 (setting [13]) is over 250 nM; at CDK4/CCND3 (setting [11]), over 250 nM; at CDK2/CCNE1 (setting [9]) it was under 25 nM; on CDK6/CCND1 (setting [12]), over 250 nM.

For the molecule `Cc1c(-c2nccc3cnc(Nc4ccc(S(C)(=N)=O)cc4)cc23)ccc2nn(C)cc12` (racemic) [Example 626, (4-((5-(2,4-dimethyl-2H-indazol-5-yl)-2,6-naphthyridin-3-yl)amino)phenyl)(imino)(methyl)-λ^6-sulfanone], the IC50 is over 250 nM at CDK1/CCNB1 (setting [13]), over 250 nM at CDK4/CCND3 (setting [11]), under 25 nM on CDK2/CCNE1 (setting [9]) and over 250 nM at CDK6/CCND1 (setting [12]).

Take `CC1(O)C=C(c2nccc3cnc(Nc4ccc(S(C)(=O)=O)cc4)cc23)CCC1` (racemic) [Example 671, 1-methyl-3-(7-((4-(methylsulfonyl)phenyl)amino)-2,6-naphthyridin-1-yl)cyclohex-2-en-1-ol]: the IC50 was over 250 nM on CDK1/CCNB1 (setting [13]), over 250 nM at CDK4/CCND3 (setting [11]), under 25 nM on CDK2/CCNE1 (setting [9]) and 25 to 250 nM at CDK6/CCND1 (setting [10]).

`CS(=O)(=O)c1ccc(Nc2cc3c(N4CC[C@H](c5ccc(C#N)cc5)[C@H](O)C4)nccc3cn2)cc1` (relative stereo) [Example 606, 4-(3-hydroxy-1-(7-((4-(methylsulfonyl)phenyl)amino)-2,6-naphthyridin-1-yl)piperidin-4-yl)benzonitrile]: the IC50 was over 250 nM at CDK1/CCNB1 (setting [13]); over 250 nM at CDK4/CCND3 (setting [11]); 25 to 250 nM at CDK2/CCNE1 (x = IC50 25-250 nM, read-out: CDK2/CCNE IC50 (25-250 nM)); over 250 nM at CDK6/CCND1 (setting [12]).

Take `CS(=O)(=O)N1CCC(Nc2cc3c(N4CCC(C#N)C4)nccc3cn2)CC1` (single isomer, unassigned) [Ex 115, 1-(7-((1-(methylsulfonyl)piperidin-4-yl)amino)-2,6-naphthyridin-1-yl)pyrrolidine-3-carbonitrile]: the IC50 on CDK1/CCNB1 (setting [14]) is 25 to 250 nM; on CDK4/CCND3 (<25 nM, read-out: CDK4/CCND IC50 <25 nM), under 25 nM; at CDK2/CCNE1 (setting [15]), under 25 nM; on CDK6/CCND1 (<25 nM, read-out: CDK6/CCND IC50 <25 nM) it was under 25 nM.

`Cc1cc(S(=N)(=O)C2COC2)ccc1Nc1cc2c(C#Cc3ccc4c(c3)NC(=O)C43CC3)nccc2cn1` (single isomer, unassigned) [Ex 268, 6'-((7-((2-methyl-4-(oxetane-3-sulfonimidoyl)phenyl)amino)-2,6-naphthyridin-1-yl)ethynyl)spiro[cyclopropane-1,3'-indolin]-2'-one]: the IC50 at CDK1/CCNB1 (setting [14]) was 25 to 250 nM; on CDK4/CCND3 (25-250 nM marked x, read-out: CDK4/CCND IC50 25-250 nM) it was 25 to 250 nM; on CDK2/CCNE1 (setting [15]) it was under 25 nM; at CDK6/CCND1 (setting [16]) it was over 250 nM.

As to `CCC1(CC)C(=O)Nc2cc(C#Cc3nccc4cnc(Nc5ccc(S(=N)(=O)C6CCC6)cc5OC)cc34)ccc21` (single isomer, unassigned) [Ex 269, 6-((7-((4-(cyclobutanesulfonimidoyl)-2-methoxyphenyl)amino)-2,6-naphthyridin-1-yl)ethynyl)-3,3-diethylindolin-2-one], the IC50 was over 250 nM on CDK1/CCNB1 (setting [17]), over 250 nM on CDK4/CCND3 (setting [18]), under 25 nM at CDK2/CCNE1 (setting [15]) and over 250 nM on CDK6/CCND1 (setting [16]).

Turning to `CCC1(CC)C(=O)Nc2cc(C#Cc3nccc4cnc(Nc5ccc(S(=N)(=O)C6COC6)cc5F)cc34)ccc21` (single isomer, unassigned) [Ex 273, 3,3-diethyl-6-((7-((2-fluoro-4-(oxetane-3-sulfonimidoyl)phenyl)amino)-2,6-naphthyridin-1-yl)ethynyl)indolin-2-one], the IC50 is over 250 nM on CDK1/CCNB1 (setting [17]), over 250 nM on CDK4/CCND3 (setting [18]), under 25 nM at CDK2/CCNE1 (setting [15]) and over 250 nM on CDK6/CCND1 (setting [16]).
